Data reported in ChEMBL document CHEMBL4312012, “Development of a novel hybrid antimicrobial peptide for targeted killing of Pseudomonas aeruginosa” (Eur J Med Chem, 2020).
Activity calls are given as the source filed them. No cut-off for these calls is given here. Peptide text beside a SMILES is read from it.

What was measured:
Salmonella typhimurium [1] = test: Binding affinity to cell surface of Salmonella typhimurium KCTC 2370 at 10 uM incubated for 1 hr by ELISA; format: organism-based; settings: Salmonella enterica subsp. enterica serovar Typhimurium
Escherichia coli [2] = test: Binding affinity to cell surface of Escherichia coli KCTC 2223 at 10 uM incubated for 1 hr by ELISA; format: organism-based
[3] = system: Outer membrane porin F (Pseudomonas aeruginosa (strain ATCC 15692 / DSM 22644 / CIP 104116 / JCM14847 / LMG 12228 / 1C / PRS 101 / PAO1)), P13794 [UNDEFINED MUTATION]; test: Binding affinity to OprF mutant in Pseudomonas aeruginosa H636 at 10 uM incubated for 1 hr by ELISA
Staphylococcus aureus [4] = test: Binding affinity to cell surface of Staphylococcus aureus ATCC 15752 at 10 uM incubated for 1 hr by ELISA; format: organism-based
Pseudomonas aeruginosa [5] = test: Binding affinity to cell surface of Pseudomonas aeruginosa H103 at 10 uM incubated for 1 hr by ELISA; format: organism-based
[6] = target: T1, Outer membrane porin F (Pseudomonas aeruginosa (strain ATCC 15692 / DSM 22644 / CIP 104116 / JCM14847 / LMG 12228 / 1C / PRS 101 / PAO1)) (UniProt P13794); test: Binding affinity to OprF in Pseudomonas aeruginosa H103 at 10 uM incubated for 1 hr by ELISA
T1 sequence (whole entry): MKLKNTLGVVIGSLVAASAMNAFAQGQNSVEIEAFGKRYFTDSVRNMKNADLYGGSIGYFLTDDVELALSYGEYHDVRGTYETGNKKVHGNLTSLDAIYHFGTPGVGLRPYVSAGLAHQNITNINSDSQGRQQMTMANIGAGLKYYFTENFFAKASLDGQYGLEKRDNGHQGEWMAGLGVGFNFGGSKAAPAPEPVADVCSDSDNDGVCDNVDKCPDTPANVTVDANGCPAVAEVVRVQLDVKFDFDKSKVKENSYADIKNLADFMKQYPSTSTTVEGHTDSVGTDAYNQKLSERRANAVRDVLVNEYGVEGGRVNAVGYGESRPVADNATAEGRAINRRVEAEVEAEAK

Candida albicans [7] = test: Binding affinity to cell surface of Candida albicans ATCC 10231 at 10 uM incubated for 1 hr by ELISA; format: organism-based
[8] = target: T1, Outer membrane porin F (Pseudomonas aeruginosa (strain ATCC 15692 / DSM 22644 / CIP 104116 / JCM14847 / LMG 12228 / 1C / PRS 101 / PAO1)); test: Binding affinity to recombinant Pseudomonas aeruginosa OprF expressed in Escherichia coli BL21 (DE3) at 10 uM incubated for 1 hr by ELISA
Pseudomonas aeruginosa [9] = test: Antibacterial activity against multidrug resistant Pseudomonas aeruginosa H103 infected in BALB/c mouse infected assessed as survival rate at 25 mg/kg, ip measured on day 7; format: functional; settings: 168 h
Staphylococcus aureus [10] = test: Antibacterial activity against Staphylococcus aureus ATCC 15752 assessed as reduction in bacterial cell growth preincubated for 3 hrs followed by medium replenishment further incubated for 18 hrs by serial microdilution method; format: functional
[11] = system: Outer membrane porin F (Pseudomonas aeruginosa (strain ATCC 15692 / DSM 22644 / CIP 104116 / JCM14847 / LMG 12228 / 1C / PRS 101 / PAO1)), P13794 [UNDEFINED MUTATION]; test: Binding affinity to OprF mutant in Pseudomonas aeruginosa H636 at 1 uM incubated for 5 mins by confocal laser scanning microscopy
Escherichia coli [12] = test: Binding affinity to cell surface of Escherichia coli KCTC 2223 at 1 uM incubated for 5 mins by confocal laser scanning microscopy; format: organism-based
Salmonella typhimurium [13] = test: Antibacterial activity against Salmonella typhimurium KCTC 2370 assessed as reduction in bacterial cell growth preincubated for 3 hrs followed by medium replenishment further incubated for 18 hrs by serial microdilution method; format: functional, Salmonella enterica subsp. enterica serovar Typhimurium; settings: Salmonella enterica
Pseudomonas aeruginosa [14] = test: Antibacterial activity against multidrug resistant Pseudomonas aeruginosa H103 infected in BALB/c mouse infected assessed as survival rate at 15 mg/kg, ip measured on day 7; format: functional; settings: 168 h
Escherichia coli [15] = test: Antibacterial activity against Escherichia coli KCTC 2223 assessed as reduction in bacterial cell growth preincubated for 3 hrs followed by medium replenishment further incubated for 18 hrs by serial microdilution method; format: functional
[16] = target: T1, Outer membrane porin F (Pseudomonas aeruginosa (strain ATCC 15692 / DSM 22644 / CIP 104116 / JCM14847 / LMG 12228 / 1C / PRS 101 / PAO1)); test: Binding affinity to OprF in Pseudomonas aeruginosa H103 assessed as binding affinity to bacterial cell surface at 1 uM incubated for 5 mins by confocal laser scanning microscopy
Pseudomonas aeruginosa [17] = test: Antibacterial activity against Pseudomonas aeruginosa assessed as reduction in bacterial cell growth preincubated for 3 hrs followed by medium replenishment further incubated for 18 hrs by serial microdilution method; format: functional
Salmonella typhimurium [18] = test: Binding affinity to cell surface of Salmonella typhimurium KCTC 2370 at 1 uM incubated for 5 mins by confocal laser scanning microscopy; format: organism-based; settings: Salmonella enterica subsp. enterica serovar Typhimurium
Candida albicans [19] = test: Antifungal activity against Candida albicans ATCC 10231 assessed as reduction in fungal cell growth preincubated for 3 hrs followed by medium replenishment further incubated for 18 hrs by serial microdilution method; format: functional
Escherichia coli [20] = test: Antibacterial activity against Escherichia coli KCTC 2223 co-cultured with Pseudomonas aeruginosa H103 assessed as reduction in bacterial load by measuring decrease in colony forming units at 2 uM incubated for 30 mins by time-kill assay; format: functional
Mus musculus [21] = test: In vivo antibacterial activity against multidrug resistant Pseudomonas aeruginosa H103 infected in BALB/c mouse assessed as reduction in bacterial load by measuring decrease in colony forming units in spleen at 25 mg/kg, ip measured after 12 hrs; format: functional
Mus musculus [22] = test: In vivo antibacterial activity against multidrug resistant Pseudomonas aeruginosa H103 infected in BALB/c mouse assessed as reduction in bacterial load by measuring decrease in colony forming units in liver at 25 mg/kg, ip measured after 12 hrs; format: functional
Erythrocyte = test: Hemolytic activity in human RBC incubated for 30 mins; format: ADME, cell-based; settings: 0.5 h
Pseudomonas aeruginosa [23] = test: Antibacterial activity against Pseudomonas aeruginosa H103 co-cultured with Escherichia coli KCTC 2223 assessed as reduction in bacterial load by measuring decrease in colony forming units at 2 uM incubated for 30 mins by time-kill assay; format: functional
Pseudomonas aeruginosa [24] = test: Antibacterial activity against Pseudomonas aeruginosa H103 co-cultured with Salmonella typhimurium KCTC 2370 assessed as reduction in bacterial load by measuring decrease in colony forming units at 2 uM incubated for 30 mins by time-kill assay; format: functional
Salmonella typhimurium [25] = test: Antibacterial activity against Salmonella typhimurium KCTC 2370 co-cultured with Pseudomonas aeruginosa H103 assessed as reduction in bacterial load by measuring decrease in colony forming units at 2 uM incubated for 30 mins by time-kill assay; format: functional, organism-based; settings: Salmonella enterica subsp. enterica serovar Typhimurium
Mus musculus [26] = test: In vivo antibacterial activity against multidrug resistant Pseudomonas aeruginosa H103 infected in BALB/c mouse assessed as reduction in bacterial load by measuring decrease in colony forming units in kidney at 25 mg/kg, ip measured after 12 hrs; format: functional
Staphylococcus aureus [27] = test: Antibacterial activity against Staphylococcus aureus ATCC 15752 assessed as reduction in bacterial cell growth in presence of GNU7 preincubated for 3 hrs followed by medium replenishment further incubated for 18 hrs by serial microdilution method; format: functional
Pseudomonas aeruginosa [28] = test: Antibacterial activity against Pseudomonas aeruginosa assessed as reduction in bacterial cell growth in presence of GNU7 preincubated for 3 hrs followed by medium replenishment further incubated for 18 hrs by serial microdilution method; format: functional
Salmonella typhimurium [29] = test: Antibacterial activity against Salmonella typhimurium KCTC 2370 assessed as reduction in bacterial cell growth in presence of GNU7 preincubated for 3 hrs followed by medium replenishment further incubated for 18 hrs by serial microdilution method; format: functional, Salmonella enterica subsp. enterica serovar Typhimurium; settings: Salmonella enterica
Candida albicans [30] = test: Antifungal activity against Candida albicans ATCC 10231 assessed as reduction in fungal cell growth in presence of GNU7 preincubated for 3 hrs followed by medium replenishment further incubated for 18 hrs by serial microdilution method; format: functional
[31] = target: T1, Outer membrane porin F (Pseudomonas aeruginosa (strain ATCC 15692 / DSM 22644 / CIP 104116 / JCM14847 / LMG 12228 / 1C / PRS 101 / PAO1)); test: Binding affinity to OprF in Pseudomonas aeruginosa H103 assessed as binding affinity to bacterial cell surface at 10 uM incubated for 1 hr by ELISA
Escherichia coli [32] = test: Antibacterial activity against Escherichia coli KCTC 2223 assessed as reduction in bacterial cell growth in presence of GNU7 preincubated for 3 hrs followed by medium replenishment further incubated for 18 hrs by serial microdilution method; format: functional

| Compound | Activity (Salmonella typhimurium [1]) | Activity (Escherichia coli [2]) | Activity [3] | Activity (Staphylococcus aureus [4]) | Activity (Pseudomonas aeruginosa [5]) | Activity [6] | Activity (Candida albicans [7]) | Activity [8] | survival at 25 mg/kg (Pseudomonas aeruginosa [9]) [%] | MIC (Staphylococcus aureus [10]) [µM] | Activity [11] | Activity (Escherichia coli [12]) | MIC (Salmonella typhimurium [13]) [µM] | MIC (Escherichia coli [15]) [µM] | Activity [16] | MIC (Pseudomonas aeruginosa [17]) [µM] | Activity (Salmonella typhimurium [18]) | MIC (Candida albicans [19]) [µM] | other results |
| --- | --- | --- | --- | --- | --- | --- | --- | --- | --- | --- | --- | --- | --- | --- | --- | --- | --- | --- | --- |
| CC(C)C[C@H](NC(=O)[C@H](CO)NC(=O)[C@H](CO)NC(=O)[C@H](CS)NC(=O)[C@@H](N)CO)C(=O)N[C@H](C(=O)N[C@H](C(=O)N[C@@H](CC(C)C)C(=O)N[C@@H](CCCNC(=N)N)C(=O)N1CCC[C@H]1C(=O)N[C@@H](CS)C(=O)NCC(=O)O)[C@@H](C)O)[C@@H](C)O (H-SCSSLTTLRPCG-OH) | Active | Active | Active | Active | Active | Active | Active | inactive |  |  |  |  |  |  |  |  |  |  |  |
| C[C@@H](O)[C@H]1C(=O)N2C(C(=O)O)=C(S[C@@H]3CN[C@H](C(=O)N(C)C)C3)[C@H](C)[C@H]12 [MEROPENEM] |  |  |  |  |  |  |  |  | 25 |  |  |  |  |  |  |  |  |  |  |
| H-RLLRPLLQLLKQKLR-OH |  |  |  |  |  |  |  |  |  | 4 | inactive | inactive | 16 | 8 | inactive | 32 | inactive | 16 | survival at 15 mg/kg (Pseudomonas aeruginosa [14]): 62.5% |
| H-SQRKLAAKLTSKGGGRLLRPLLQLLKQKLR-OH |  |  |  |  |  |  |  |  | 100 | 2 | inactive | inactive | 2 | 1 | Active | 2 | inactive | 8 | Activity (Escherichia coli [20]): 0.6 log10CFU; Activity (Mus musculus [21]): 2.8 log10CFU; Activity (Mus musculus [22]): 3 log10CFU; Activity (Erythrocyte): Non-Toxic; Activity (Pseudomonas aeruginosa [23]): 2.7 log10CFU; Activity (Pseudomonas aeruginosa [24]): 1.4 log10CFU; Activity (Salmonella typhimurium [25]): inactive; Activity (Mus musculus [26]): 3.6 log10CFU |
| H-VILTGPEAEYFW-OH |  |  |  |  | inactive |  |  |  |  |  |  |  |  |  |  |  |  |  |  |
| H-SQRKLAAKLTSK-OH | inactive | inactive | inactive | inactive |  | Active | inactive | Active |  | > 32 | inactive | inactive | > 32 | > 32 | Active | > 32 | inactive | > 32 | MIC (Staphylococcus aureus [27]): 4 µM; MIC (Pseudomonas aeruginosa [28]): 32 µM; MIC (Salmonella typhimurium [29]): 16 µM; MIC (Candida albicans [30]): 16 µM; Activity [31]: Active; MIC (Escherichia coli [32]): 8 µM |
